Columns and labels:
[1] = system: KB31 cells; experiment: Delivery of bacterial plasmid pUC-CMVLUC into KB31 cells, luciferase reporter expression (Table 1); assay type: cell-based, human; settings: KB cells, pUC-CMVLUC 1 microgram, 7 h; maximum over a range of plasmid/lipid ratios
Method: (§1) These materials were used as supplied from the manufacturer. DOTAP-DOPE 1:1 was prepared from the mixture (1:1 by weight) of 1,2 dioleoyloxy-3-trimethylammoniopropane (DOTAP, Avanti PolarLipids, USA) and DOPE by dissolving in distilled water at the concentration 2 mg/ml. DDAB-DOPE 1:2.5 (also known as LipofectACE®, Gibco BRL, USA) was prepared from the mixture of dioctadecyl-dimethylammonium bromide (DDAB, Sigma, USA) and DOPE in the weight ratio 1:2.5 dissolved in distilled water at concentration of 3 mg/ml with brief sonication. All lipid solutions were sterilized by filtration though 0.2 micrometer cellulase acetate filter, unless supplied sterile by manufacturers.
Human epidermoid carcinoma (KB31) cells were grown at 37° C. and 5% CO2 in RPMI 1640 medium supplemented with 10% heat-inactivated fetal calf serum. The cells were plated into a 12-well cell culture plate at 1.5×10^5 cells/well in 1 ml of the growth medium. After a 24 hour acclimation period, 1 microgram of bacterial plasmid (pUC-CMVLUC) with luciferase reporter gene under control of the CMV promoter was added to the cell media, either alone, or in the complex with cationic lipids as indicated below, prepared at a variety of lipid-to-DNA ratios. The complexes were prepared by mixing the lipid, as supplied by the manufacturer, and 1 microgram of the plasmid in 40 microliters of HEPES-NS. […]

[2] = system: C26 cells; experiment: Delivery of bacterial plasmid into mouse colon carcinoma C26 cells, luciferase expression (Table 3); assay type: cell-based
Method: as §1
Mouse colon carcinoma cells (C26) were grown, incubated with plasmid pCMVLUC in the presence of Arg-PE or commercially available cationic lipids, and assayed for luciferase expression as described in Example 5 above.

[3] = system: NCI-H1048 cells; experiment: Delivery of bacterial plasmid into human extrapulmonary small cell carcinoma NCI-H1048 cells, luciferase expression (Table 4); assay type: cell-based
Method: as §1
The cells were plated into a 12-well cell culture plate at 1.5×10^5 cells/well in 1 ml of the growth medium. After a 24 hour acclimation period, 1 microgram of bacterial plasmid (pUC-CMVLUC) with luciferase reporter gene under control of the CMV promoter was added to the cell media, either alone, or in the complex with cationic lipids as indicated below, prepared at a variety of lipid-to-DNA ratios. The complexes were prepared by mixing the lipid, as supplied by the manufacturer, and 1 microgram of the plasmid in 40 microliters of HEPES-NS. […]

[4] = system: NCI-H1048 cells; experiment: Uptake of fluorescein-labeled 24-mer phosphorothioate oligonucleotide, flow cytometry (Table 2); assay type: cell-based, human; settings: for Total uptake: mean cell fluorescence / Uptake increase over oligo alone: oligonucleotide 0.5 micro-M
Method: Human small cell lung carcinoma cells (NCI-H1048) were grown in RPMI-1640 medium with 10% heat-inactivated fetal calf serum. The cells were exposed for 7 hours in a serum-free medium with a fluorescein-labeled 24-mer phosphorothioate oligonucleotide (0.5 micro-M final concentration), alone or in a complex with lipids obtained as described in Examples 2 and 3. Then the equal volume of serum-supplemented medium was added, and the cells were incubated for another 18 hours. After incubation, cellular accumulation of the oligonucleotide was assayed by flow cytometry using fluorescein label fluorescence.

[5] = system: NCI-A549 cells; experiment: Uptake of fluorescein-labeled 18-mer phosphorothioate oligonucleotide (F-ON), fluorescence microscopy; assay type: cell-based, human; settings: oligonucleotide/lipid weight ratio 1:12, 24 hours, 37° C.
Method: Human lung adenocarcinoma cells (NCI-A549, American Type Culture Collection) were grown on Permanox® chamber slides in […] medium supplemented with 10% fetal calf serum (R-10) at 37° C. and 5% CO2. 4 micrograms of fluroscein-labeled 18-mer phosphorothioate oligonucleotide (F-ON) in 0.1 ml of HEPES-buffered saline (20 mM hydroxyethylpiperazine-ethane sulfonic acid (HEPES), 144 mM NaCl, pH 7.4) were mixed with Arg-PE formulated as described in Example 2, at the weight ratio of oligonucleotide to the lipid of 1:12. After 30 minutes of incubation, the mixture was made up to 2 mi with R-10 and added to the cells. After 24 hours incubation at 37° C., 5% CO2, the medium was aspirated, the cells washed 4 times with HEPES-buffered balanced salt solution, and immediately examined through a fluorescence microscope. […] Accumulation of the oligonucleotide in NCI-A549 cells, incubated with F-ON under the same conditions, but in the absence of Arg-PE, was undetectable.

[6] = system: KB31 cells; experiment: Toxicity of lipids alone or in complex with plasmid for cultured cells, MTT assay; assay type: cell-based, human; settings: for Toxicity in the studied range of concentrations efficient for gene delivery: cultured human cells, alone or in combination with DNA
Method: Lipids alone, or in the complex with pUC-CMVLUC plasmid at the indicated ratio were added to the cell medium at concentrations of 3.2-100 microgram of lipid per 1 ml of growth medium. After 24 hours exposure to the lipids, the lipid-containing media were removed, and the cells were further incubated in fresh growth medium for 65 hours. At the end of incubations, the cell viability was determined by MTT assay as described in T. Mossman 65 J. Immunol.

[7] = system: living cells; experiment: Delivery of functional plasmid DNA and phosphorothioate oligonucleotide into living cells (summary comparison); assay type: cell-based
Source text: We have tested Arg-PE for its ability to deliver functional plasmid DNA and phosphorothioate oligonucleotide (PS ON) into living cells. […] Helper lipids are required for the activity of previously known monocationic lipids.

[8] = pUC-CMVLUC, maximum over a range of plasmid/lipid ratios

SMILES	Maximum luciferase activity [1]	Plasmid delivery compared with other cationic lipids [2]	Maximum luciferase activity [2, 8]	Plasmid delivery compared with Transfectam [3]	Maximum luciferase activity [3, 8]	Enhancement of oligonucleotide uptake compared with commercial cationic lipids ([4]; NCI-H1048 cells)	Total uptake: mean cell fluorescence ([4]; oligo/lipid ratio 1:3) [relative units]	Uptake increase over oligo alone ([4]; oligo/lipid ratio 1:3) [times]	Total uptake: mean cell fluorescence ([4]; oligo/lipid ratio 1:6) [relative units]	Uptake increase over oligo alone ([4]; oligo/lipid ratio 1:6) [times]	Cells showing nuclear fluorescence and cytoplasmic deposits of fluorescent material [5] [%]	Microscopic appearance (intracellular distribution of F-ON) [5]	Toxicity compared with commercial lipids (MTT viability) ([6]; 3.2-100 microgram lipid per ml, 24 hours exposure, lipid as such or DNA-lipid complexes)	Toxicity in the studied range of concentrations efficient for gene delivery [6]	Efficiency of DNA delivery compared with DOGS [7]	Efficiency of cellular delivery of DNA and PS ON versus commercial materials [7]	DNA delivery activity without helper lipid ([7]; without the use of a "helper lipid")
CCCCCCCC/C=C\CCCCCCCC(=O)OC[C@H](COP(=O)(O)OCCNC(=O)[C@@H](N)CCCNC(=N)N)OC(=O)CCCCCCC/C=C\CCCCCCCC [Arg-PE, N-Arginyl-dioleoylphosphatidylethanolamine]	8.25 × 10^6 RLU/mg protein	more effective for the plasmid delivery into C26 cells than other monocationic lipids and as effective as the polycationic lipid Transfectam®	9.02 × 10^7 RLU/mg protein	as effective for the plasmid delivery into NCI-H1048 cells as a polycationic Transfectam®	3.21 × 10^5 RLU/mg protein	enhanced the uptake of the oligonucleotide by the cells at least as effectively as the tested commercial cationic lipids	2.97	4.26	4.08	5.85	100	bright green nuclear fluorescence and substantial cytoplasmic deposits of granular fluorescent material	displayed the least toxicity	no detectable toxicity	superior to that of a polycationic lipid, DOGS	higher efficiency of the cellular delivery of DNA and PS ON	highly active for the DNA delivery into the cells even without the use of a "helper lipid"
CCCCCCCCCCCCCCCCCCN(CCCCCCCCCCCCCCCCCC)C(=O)CNC(=O)C(CCCNCCCN)NCCCN (stereo not drawn) [DOGS, reference compound]	–	–	–	–	–	–	–	–	–	–	–	–	–	no detectable toxicity	–	–	–

Reference: patent US5980935A, “Cationic lipids and methods of use therefor” (priority 1996, dated 1999)
